The target of this assay is T1, human GR (Homo sapiens, UniProt P04150).
T1 sequence (P04150 1-777): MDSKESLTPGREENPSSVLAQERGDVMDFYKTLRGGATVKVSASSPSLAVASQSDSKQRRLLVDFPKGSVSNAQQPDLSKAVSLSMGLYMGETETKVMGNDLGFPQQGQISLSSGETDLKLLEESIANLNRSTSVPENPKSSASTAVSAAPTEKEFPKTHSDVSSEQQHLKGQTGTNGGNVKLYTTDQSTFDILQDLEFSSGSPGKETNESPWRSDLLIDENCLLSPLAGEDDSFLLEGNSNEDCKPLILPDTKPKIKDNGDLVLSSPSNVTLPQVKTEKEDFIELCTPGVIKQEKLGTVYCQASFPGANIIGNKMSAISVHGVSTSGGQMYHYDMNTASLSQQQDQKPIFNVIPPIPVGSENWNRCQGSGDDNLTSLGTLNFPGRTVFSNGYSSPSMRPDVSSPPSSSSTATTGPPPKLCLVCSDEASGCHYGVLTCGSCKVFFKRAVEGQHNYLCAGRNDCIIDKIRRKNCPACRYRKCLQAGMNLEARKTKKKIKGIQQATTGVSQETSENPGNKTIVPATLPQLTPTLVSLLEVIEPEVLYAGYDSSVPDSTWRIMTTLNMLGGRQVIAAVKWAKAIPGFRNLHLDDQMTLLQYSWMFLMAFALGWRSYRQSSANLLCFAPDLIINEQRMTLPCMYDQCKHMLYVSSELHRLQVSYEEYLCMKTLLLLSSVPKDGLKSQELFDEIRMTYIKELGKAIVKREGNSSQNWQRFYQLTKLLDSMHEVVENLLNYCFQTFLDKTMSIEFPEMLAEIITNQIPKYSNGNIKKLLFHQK
Briefly: Transrepression Assay (GITAR), TNFα-β-lactamase reporter gene in U937 cells. On the set-up: U937 cells contain an endogenous glucocorticoid receptor (GR); endogenous in cells; host or cells: U937 cells stably transfected with the TNF-α promoter/β-lactamase reporter only. The format is cell-based. Particulars: for EC50: IP = inflection point, read-out: Transrepression U937 Cells GITAR IP; for GITAR > GRAMM % SEP: separation of GITAR Emax over GRAMMER Emax; for Emax: U-937. In short, it runs like this: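 Reporter readout used CCF2-AM loading for 70–90 min at room temperature after overnight (~18 h, 37 °C) PMA (5 ng/ml final) and LPS (100 ng/ml final) stimulation of compound-treated (30–45 min) TNFα-β-lactamase U937 cells expressing native GR. Activity was normalised to 100 nM dexamethasone repression.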

Where [1] appears, read: 100 nM dexamethasone = 100% activity, read-out: maximal activity in the transrepression assay.
Setting [2] is: Table 1, U937 cells, activity repressed by 100 nM dexamethasone = 100%, read-out: Transrepression U937 Cells GITAR Emax (%).

Like-named read-outs stand apart in the source and are kept apart here.

Turning to `C[C@]12Cc3cnn(-c4ccc(F)cc4)c3C=C1CC[C@@]2(O)CCc1ccccc1CC(N)=O` [Example 107, 2-(2-{2-[(4αS,5R)-1-(4-fluorophenyl)-5-hydroxy-4α-methyl-1,4,4α,5,6,7-hexahydrocyclopenta[f]indazol-5-yl]ethyl}phenyl)acetamide], the EC50 (Table 1, U937 cells) was found to be 217 nM. Further, the “GITAR > GRAMM % SEP” value (Table 1) came to 29%. For the same compound, the Emax runs as follows: under setting [1], 5 to 100%; under setting [2], 66%.

As for `CN(C)S(=O)(=O)Nc1c(F)cccc1CC[C@]1(O)CCC2=Cc3c(cnn3-c3ccc(F)cc3)C[C@@]21C` [Example 113, N′-(2-fluoro-6-{2-[(4αS,5R)-1-(4-fluorophenyl)-5-hydroxy-4α-methyl-1,4,4α,5,6,7-hexahydrocyclopenta[f]indazol-5-yl]ethyl}phenyl)-N,N-dimethylsulfamide], the EC50 (Table 1, U937 cells) turned out to be 207 nM. In addition, where the note is “Table 1”, the “GITAR > GRAMM % SEP” value worked out at 39%. Besides, the Emax is, setting by setting: under setting [1], 5 to 100%; under setting [2], 71%.

For the compound `CCS(=O)(=O)Nc1ccccc1CC[C@]1(O)CCC2=Cc3c(cnn3-c3ccc(F)cc3)C[C@@]21C` [Example 114, N-(2-{2-[(4αS,5R)-1-(4-fluorophenyl)-5-hydroxy-4α-methyl-1,4,4α,5,6,7-hexahydrocyclopenta[f]indazol-5-yl]ethyl}phenyl)ethanesulfonamide], the EC50 (Table 1, U937 cells) worked out at 199 nM. Under “Table 1”, the “GITAR > GRAMM % SEP” value worked out at 34%. Besides, the Emax runs as follows: under setting [1], 5 to 100%; under setting [2], 78%.

As to `CN(C)S(=O)(=O)c1ccccc1CC[C@]1(O)CCC2=Cc3c(cnn3-c3ccc(F)cc3)C[C@@]21C` [Example 138, 2-{2-[(4αS,5R)-1-(4-fluorophenyl)-5-hydroxy-4α-methyl-1,4,4α,5,6,7-hexahydrocyclopenta[f]indazol-5-yl]ethyl}-N,N-dimethylbenzenesulfonamide], the EC50 (Table 1, U937 cells) was 212 nM. Also, the “GITAR > GRAMM % SEP” value (Table 1) is 17%. In addition, the Emax under setting [1] fell in the range of 5 to 100% and the Emax under setting [2] amounted to 72%.

Take `CCS(=O)(=O)c1ccccc1CC[C@]1(O)CCC2=Cc3c(cnn3-c3ccc(F)cc3)C[C@@]21C` [Example 143, (4αS,5R)-5-{2-[2-(ethylsulfonyl)phenyl]ethyl}-1-(4-fluorophenyl)-4α-methyl-1,4,4α,5,6,7-hexahydrocyclopenta[f]indazol-5-ol]: the EC50 (Table 1, U937 cells) amounted to 194 nM. For the same compound, where the note is “Table 1”, the “GITAR > GRAMM % SEP” value stood at 29%. Further, the Emax runs as follows: under setting [1], 5 to 100%; under setting [2], 70%.

On to `C[C@]12Cc3cnn(-c4ccc(F)cc4)c3C=C1CC[C@@]2(O)CCc1ccccc1S(=O)(=O)C1CC1` [Example 144, (4αS,5R)-5-{2-[2-(cyclopropylsulfonyl)phenyl]ethyl}-1-(4-fluorophenyl)-4α-methyl-1,4,4α,5,6,7-hexahydrocyclopenta[f]indazol-5-ol], for which the EC50 (Table 1, U937 cells) stood at 212 nM. Also, the Emax reads like this: under setting [1], 5 to 100%; under setting [2], 70%.

Turning to `C[C@]12Cc3cnn(-c4ccc(F)cc4)c3C=C1CC[C@@]2(O)CCc1cccc(F)c1CO` [Example 148, (4αS,5R)-5-{2-[3-fluoro-2-(hydroxymethyl)phenyl]ethyl}-1-(4-fluorophenyl)-4α-methyl-1,4,4α,5,6,7-hexahydrocyclopenta[f]indazol-5-ol], the EC50 (Table 1, U937 cells) was determined as 46 nM. The “GITAR > GRAMM % SEP” value (Table 1) was 18%. Also, the Emax was 5 to 100% under setting [1] and 75% under setting [2].

In the case of `C[C@]12Cc3cnn(-c4ccc(F)cc4)c3C=C1CC[C@@]2(O)CCc1cccc(F)c1[C@H](N)C(F)(F)F` [Example 151, (4αS,5R)-5-(2-{2-[(1S)-1-amino-2,2,2-trifluoroethyl]-3-fluorophenyl}ethyl)-1-(4-fluorophenyl)-4α-methyl-1,4,4α,5,6,7-hexahydrocyclopenta[f]indazol-5-ol], the EC50 (Table 1, U937 cells) worked out at 207 nM. The “GITAR > GRAMM % SEP” value (Table 1) is given as 33%. Also, the Emax reads like this: under setting [1], 5 to 100%; under setting [2], 76%.

For `C[C@]12Cc3cnn(-c4ccc(F)cc4)c3C=C1CC[C@@]2(O)CCc1cccc(F)c1[C@@H](N)C(F)(F)F` [Example 152, (4αS,5R)-5-(2-{2-[(1R)-1-amino-2,2,2-trifluoroethyl]-3-fluorophenyl}ethyl)-1-(4-fluorophenyl)-4α-methyl-1,4,4α,5,6,7-hexahydrocyclopenta[f]indazol-5-ol], the EC50 (Table 1, U937 cells) was 247 nM. Where the note is “Table 1”, the “GITAR > GRAMM % SEP” value was determined as 34%. In addition, the Emax under setting [1] was in the range of 5 to 100% and the Emax under setting [2] amounted to 77%.

As for `C[C@]12Cc3cnn(-c4ccc(F)cc4)c3C=C1CC[C@@]2(O)CCc1ccccc1C(=O)N1CC(=O)C1` [Example 156, 1-(2-{2-[(4αS,5R)-1-(4-fluorophenyl)-5-hydroxy-4α-methyl-1,4,4α,5,6,7-hexahydrocyclopenta[f]indazol-5-yl]ethyl}benzoyl)azetidin-3-one], the EC50 (Table 1, U937 cells) was 189 nM. Further, the “GITAR > GRAMM % SEP” value (Table 1) came out at 22%. Also, the Emax was 5 to 100% under setting [1] and 69% under setting [2].

`CC(=O)Cc1ccccc1CC[C@]1(O)CCC2=Cc3c(cnn3-c3ccc(F)cc3)C[C@@]21C` [Example 157, 1-(2-{2-[(4αS,5R)-1-(4-fluorophenyl)-5-hydroxy-4α-methyl-1,4,4α,5,6,7-hexahydrocyclopenta[f]indazol-5-yl]ethyl}phenyl)acetone]: the EC50 (Table 1, U937 cells) worked out at 194 nM. In addition, the “GITAR > GRAMM % SEP” value (Table 1) was 18%. The Emax is 5 to 100% under setting [1] and 63% under setting [2].

In the case of `C[C@]12Cc3cnn(-c4ccc(F)cc4)c3C=C1CC[C@@]2(O)CCc1ccc(F)cc1C(N)=O` [Example 159, 5-fluoro-2-{2-[(4αS,5R)-1-(4-fluorophenyl)-5-hydroxy-4α-methyl-1,4,4α,5,6,7-hexahydrocyclopenta[f]indazol-5-yl]ethyl}benzamide], for the setting “Table 1, U937 cells”, the EC50 is 125 nM. Also, the “GITAR > GRAMM % SEP” value (Table 1) is 36%. The Emax under setting [1] lay within 5 to 100% and the Emax under setting [2] was determined as 73%.

Turning to `C[C@]12Cc3cnn(-c4ccc(F)cc4)c3C=C1CC[C@@]2(O)CCc1ccc(F)cc1C#N` [Example 163, 5-fluoro-2-{2-[(4αS,5R)-1-(4-fluorophenyl)-5-hydroxy-4α-methyl-1,4,4α,5,6,7-hexahydrocyclopenta[f]indazol-5-yl]ethyl}benzonitrile], under “Table 1, U937 cells”, the EC50 is 299 nM. In addition, the “GITAR > GRAMM % SEP” value (Table 1) is 23%. Further, the Emax was 5 to 100% under setting [1] and 70% under setting [2].

Consider `C[C@]12Cc3cnn(-c4ccc(F)c(F)c4)c3C=C1CC[C@@]2(O)CCc1cccc(F)c1C(N)=O` [Example 168, 2-{2-[(4α,5R)-1-(3,4-difluorophenyl)-5-hydroxy-4α-methyl-1,4,4α,5,6,7-hexahydrocyclopenta[f]indazol-5-yl]ethyl}-6-fluorobenzamide], for which the EC50 (Table 1, U937 cells) worked out at 52 nM. For the same compound, the “GITAR > GRAMM % SEP” value (Table 1) is 19%. In addition, the Emax is 5 to 100% under setting [1] and 77% under setting [2].

Take `C[C@]12Cc3cnn(-c4ccc(F)cc4)c3C=C1CC[C@@]2(O)CCc1ccc(Cl)cc1C(N)=O` [Example 170, 5-chloro-2-{2-[(4αS,5R)-1-(4-fluorophenyl)-5-hydroxy-4α-methyl-1,4,4α,5,6,7-hexahydrocyclopenta[f]indazol-5-yl]ethyl}benzamide]: the EC50 (Table 1, U937 cells) turned out to be 223 nM. For the same compound, the “GITAR > GRAMM % SEP” value (Table 1) amounted to 42%. For the same compound, the Emax was 5 to 100% under setting [1] and 66% under setting [2].

Take `C[C@]12Cc3cnn(-c4ccc(F)c(F)c4)c3C=C1CC[C@@]2(O)CCc1ccccc1C(N)=O` [Example 172, 2-{2-[(4αS,5R)-1-(3,4-difluorophenyl)-5-hydroxy-4α-methyl-1,4,4α,5,6,7-hexahydrocyclopenta[f]indazol-5-yl]ethyl}benzamide]: the EC50 (Table 1, U937 cells) turned out to be 139 nM. The “GITAR > GRAMM % SEP” value (Table 1) is recorded as 36%. Further, the Emax under setting [1] fell in the range of 5 to 100% and the Emax under setting [2] was 78%.

Take `Cc1ccc(C(N)=O)c(CC[C@]2(O)CCC3=Cc4c(cnn4-c4ccc(F)cc4)C[C@@]32C)c1` [Example 174, 2-{2-[(4αS,5R)-1-(4-fluorophenyl)-5-hydroxy-4α-methyl-1,4,4α,5,6,7-hexahydrocyclopenta[f]indazol-5-yl]ethyl}-4-methylbenzamide]: the EC50 (Table 1, U937 cells) worked out at 183 nM. The “GITAR > GRAMM % SEP” value (Table 1) is given as 41%. Moreover, the Emax was 5 to 100% under setting [1] and 77% under setting [2].

The values are drawn from patent US8119681B2, “2-[1-phenyl-5-hydroxy or methoxy-4alpha-methyl-hexahydrocyclopenta [ƒ]indazole-5-YL]ethyl phenyl derivatives as glucocorticoid receptor ligands” (Merck Sharp & Dohme Corp., priority 2006, dated 2012).
